Here are results for four compounds from paper PMC10131204 (JACS Au, 2023).

Where two headings read alike, the source gives them in different places.

Broadly, the Ki is the dissociation constant of the complex between target and ligand, obtained from inhibition or displacement.

One experiment relates to FKBP-cSnap and FRB-nSnap. The class given is biochemical.
The test system of experiment [1] is DOR. The class given is cell-based. Conditions: 10 µM compound, off-DNA.
Experiment [2] has as its target DOR. Conditions: cited from earlier work.

`CCC(C)(C)C(=O)C(=O)N1CCCC[C@H]1C(=O)O[C@H](CCc1ccc(OC)c(OC)c1)c1cccc(OCC(=O)O)c1` [SLF, synthetic ligand for FKBP]: the “protein labeling with BG-FAM (SnapTag reconstitution)” value in the experiment with FKBP-cSnap and FRB-nSnap was “did not induce protein labeling”.

With “Met-Enk-RF: a β-arrestin-biased DOR agonist peptide; strong G-protein bias for the MOR (YGGFMRF; Met-enkephalin-Arg-Phe; UniProt P01210 261-267, looked up)”, the “biotinylation of the DOR (β-arrestin activation) in gel-based assay” value in the experiment with DOR [1] is “markedly increased the biotinylation level”.

Turning to Tyr-Tic, the Ki at DOR [2] (low-affinity parental peptide) is roughly 0.24 µM.

Turning to Dmt-Pro-Phe-Phe, the Ki at DOR [2] (high-affinity parental peptide) was roughly 0.028 µM.
